One data set relates to SF-539. Kind of data set: Anticancer activity against human SF-539 cells assessed as cell growth inhibition. Type of data set: functional, cell-based. The settings on record: dose 1-100 µM, DDE = dose-dependent effect.
A further data set deals with MDA-MB-435. Kind of data set: Anticancer activity against human MDA-MB-435 cells assessed as cell growth inhibition. It is filed as functional, cell-based. The settings on record: dose 1-100 µM, DDE = dose-dependent effect.
The test system of the next data set is SK-MEL-2. Briefly: Anticancer activity against human SK-MEL-2 cells assessed as cell growth inhibition. Type of data set: functional, cell-based. The settings on record: dose 1-100 µM, DDE = dose-dependent effect.
For another data set, the system named is OVCAR-5. Briefly: Anticancer activity against human OVCAR-5 cells assessed as cell growth inhibition. Type of data set: functional, cell-based. The settings on record: dose 1-100 µM, DDE = dose-dependent effect.
Another data set concerns RXF 393. Briefly: Anticancer activity against human RXF 393 cells assessed as cell growth inhibition. Type of data set: functional, cell-based. Conditions: dose 1-100 µM, DDE = dose-dependent effect.
The test system of a further data set is T47D. Kind of data set: Anticancer activity against human T47D cells assessed as cell growth inhibition. Type of data set: functional, cell-based. Conditions: dose 1-100 µM, DDE = dose-dependent effect.
For data set [1], the target named is D(2) dopamine receptor (Homo sapiens) (UniProt P14416). Kind of data set: Binding affinity to D2 receptor (unknown origin) at 10000 nM by radioligand displacement assay relative to control. In general terms: Loss of bound radioactivity is the signal in a displacement assay; it reports binding, not function.
Chain of D(2) dopamine receptor (Homo sapiens) (P14416 whole entry): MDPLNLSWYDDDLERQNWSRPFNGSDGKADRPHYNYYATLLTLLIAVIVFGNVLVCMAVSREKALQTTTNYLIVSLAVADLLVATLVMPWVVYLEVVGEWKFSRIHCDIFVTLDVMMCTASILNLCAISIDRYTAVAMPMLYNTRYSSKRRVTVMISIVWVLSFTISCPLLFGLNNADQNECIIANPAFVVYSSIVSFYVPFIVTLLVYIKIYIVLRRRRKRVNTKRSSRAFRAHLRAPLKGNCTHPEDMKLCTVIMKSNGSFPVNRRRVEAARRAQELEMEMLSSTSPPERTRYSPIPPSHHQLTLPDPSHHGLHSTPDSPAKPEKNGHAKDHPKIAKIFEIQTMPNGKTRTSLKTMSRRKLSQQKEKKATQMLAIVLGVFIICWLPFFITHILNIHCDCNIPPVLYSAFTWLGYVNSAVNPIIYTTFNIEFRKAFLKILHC
For data set [2], the target named is D(4) dopamine receptor (Homo sapiens) (UniProt P21917). Kind of data set: Binding affinity to D4 receptor (unknown origin) at 10000 nM by radioligand displacement assay relative to control.
Chain of D(4) dopamine receptor (Homo sapiens) (P21917 whole entry): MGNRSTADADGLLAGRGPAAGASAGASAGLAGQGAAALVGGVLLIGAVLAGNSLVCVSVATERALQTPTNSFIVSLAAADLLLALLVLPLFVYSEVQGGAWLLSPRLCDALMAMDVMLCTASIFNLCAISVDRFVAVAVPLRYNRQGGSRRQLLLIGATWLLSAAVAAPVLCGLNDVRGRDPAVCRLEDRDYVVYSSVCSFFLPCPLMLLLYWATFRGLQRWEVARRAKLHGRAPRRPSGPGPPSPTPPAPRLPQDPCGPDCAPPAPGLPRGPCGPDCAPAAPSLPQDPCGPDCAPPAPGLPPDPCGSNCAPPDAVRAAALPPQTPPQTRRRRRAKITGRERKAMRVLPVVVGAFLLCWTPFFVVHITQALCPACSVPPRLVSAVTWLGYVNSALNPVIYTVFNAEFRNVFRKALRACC
Data set [3] addresses Muscarinic acetylcholine receptor M5 (Homo sapiens) (UniProt P08912). Briefly: Binding affinity to M5 receptor (unknown origin) at 10000 nM by radioligand displacement assay relative to control.
Data set [4] concerns the target Alpha-2C adrenergic receptor (Homo sapiens, UniProt P18825). Briefly: Binding affinity to alpha2C receptor (unknown origin) by radioligand displacement assay.
The target in data set [5] is Sigma intracellular receptor 2 (Homo sapiens, UniProt Q5BJF2). Briefly: Binding affinity to sigma2 receptor (unknown origin) by radioligand displacement assay.
Chain of Sigma intracellular receptor 2 (Q5BJF2 whole entry): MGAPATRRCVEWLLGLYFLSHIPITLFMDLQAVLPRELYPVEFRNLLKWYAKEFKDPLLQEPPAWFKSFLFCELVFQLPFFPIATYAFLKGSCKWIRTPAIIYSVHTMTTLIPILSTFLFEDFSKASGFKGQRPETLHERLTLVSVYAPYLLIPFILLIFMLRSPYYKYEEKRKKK
The conditions of data set [6]: mouse, in vivo, ip, 50 mg/kg, 0.5 h.

Bounds are passed on as bounds.

Chain of Muscarinic acetylcholine receptor M5 (Homo sapiens) (P08912 whole entry): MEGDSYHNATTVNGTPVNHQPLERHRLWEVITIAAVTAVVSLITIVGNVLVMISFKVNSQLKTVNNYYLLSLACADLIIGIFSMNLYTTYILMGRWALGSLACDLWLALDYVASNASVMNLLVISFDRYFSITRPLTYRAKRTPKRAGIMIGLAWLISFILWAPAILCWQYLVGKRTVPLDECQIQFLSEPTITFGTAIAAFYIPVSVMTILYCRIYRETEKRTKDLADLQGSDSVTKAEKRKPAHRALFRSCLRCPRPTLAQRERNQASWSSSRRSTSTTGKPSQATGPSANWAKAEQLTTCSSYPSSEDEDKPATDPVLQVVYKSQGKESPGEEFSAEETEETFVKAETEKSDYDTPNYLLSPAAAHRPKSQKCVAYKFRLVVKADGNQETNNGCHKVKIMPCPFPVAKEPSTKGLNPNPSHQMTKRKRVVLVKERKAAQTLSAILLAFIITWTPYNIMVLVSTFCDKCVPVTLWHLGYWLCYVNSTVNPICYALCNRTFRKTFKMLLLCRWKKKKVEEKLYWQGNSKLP
Chain of Alpha-2C adrenergic receptor (P18825 whole entry): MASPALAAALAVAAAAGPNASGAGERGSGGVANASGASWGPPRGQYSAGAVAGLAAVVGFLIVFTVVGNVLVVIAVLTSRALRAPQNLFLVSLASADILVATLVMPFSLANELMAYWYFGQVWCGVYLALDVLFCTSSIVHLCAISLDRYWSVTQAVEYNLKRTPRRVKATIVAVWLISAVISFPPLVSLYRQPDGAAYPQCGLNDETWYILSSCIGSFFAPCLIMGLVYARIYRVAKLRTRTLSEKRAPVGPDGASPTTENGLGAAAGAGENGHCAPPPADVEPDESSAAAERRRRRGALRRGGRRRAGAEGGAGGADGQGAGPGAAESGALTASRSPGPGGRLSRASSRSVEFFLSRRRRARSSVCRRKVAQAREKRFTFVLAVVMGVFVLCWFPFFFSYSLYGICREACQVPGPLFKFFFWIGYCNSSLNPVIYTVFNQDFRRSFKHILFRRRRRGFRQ

As to `N=c1c2c(-c3ccccc3)c(-c3ccccc3)n(Cc3ccccc3)c2ncn1[C@H]1CC[C@H](O)CC1` [ML-246], the Activity entry in the data set with SF-539, in the data set on MDA-MB-435, in the data set with SK-MEL-2, in the data set on OVCAR-5, with RXF 393 and with T47D was “Dde” each time. Besides, the Activity in data set [1], in [2] and in [3] was less than 50% each time. The Ki is 1210 nM in [4] and 244 nM in data set [5]. In addition, the highest level in data set [6] (Cmax) was 20.3 µM.

In general, Ki refers to a dissociation constant, usually derived from enzyme kinetics or from competition with a known ligand. Lower therefore signals tighter binding. One may read the Cmax as the highest concentration seen after dosing.

The record behind these values is ChEMBL document CHEMBL5154945, “Discovery and Optimization of Pyrrolopyrimidine Derivatives as Selective Disruptors of the Perinucleolar Compartment, a Marker of Tumor Progression toward Metastasis” (J Med Chem, 2022).
